Activity calls are given as the source filed them. The rule behind the calls is not given here.
Key:
[1] = biological target: Methionine aminopeptidase 2 (Homo sapiens) (UniProt P50579); assay: Inhibition of MetAP2 (unknown origin) using Met-AMC as substrate assessed as residual activity at 200 nM after 8 hrs
[2] = system: Rattus norvegicus; assay: Inhibition of MetAP2 in Sprague-Dawley rat assessed as free MetAP2 level in thymus at 3 mg/kg, po after 24 hrs by ELISA relative to vehicle-treated control; format: functional, organism-based; parameters: dose 3 mg/kg
[3] = system: Rattus norvegicus; assay: Inhibition of MetAP2 in Sprague-Dawley rat assessed as free MetAP2 level in whole blood at 3 mg/kg, po after 2 to 4 hrs by ELISA relative to vehicle-treated control; format: functional, organism-based; parameters: dose 3 mg/kg
[4] = system: HUVEC; assay: Antiproliferative activity against human HUVEC cells after 3 days; format: functional, cell-based; details: 72 h
[5] = system: Rattus norvegicus; assay: Inhibition of MetAP2 in Sprague-Dawley rat assessed as free MetAP2 level in liver at 3 mg/kg, po after 24 hrs by ELISA relative to vehicle-treated control; format: functional, organism-based; parameters: dose 3 mg/kg
[6] = biological target: Methionine aminopeptidase 2 (Homo sapiens) (UniProt P50579); assay: Inhibition of MetAP2 (unknown origin) using Met-AMC as substrate in MES buffer at pH 6.5 at 200 nM after 8 hrs
[7] = system: Plasma; assay: Drug metabolism in rat plasma assessed as PPI-2458 formation at 4 degC after 1 hr by HPLC/MS/MS analysis; format: ADME, cell-free
[8] = Stability of the compound in MES buffer at pH 6.5 after 8 hrs by LC-MS analysis; format: physicochemical; details: pH 6.5, 8 h
[9] = biological target: Methionine aminopeptidase 2 (Homo sapiens) (UniProt P50579); assay: Inhibition of MetAP2 (unknown origin) using Met-AMC as substrate in HEPES buffer at pH 7.5 at 200 nM after 8 hrs

Methionine aminopeptidase 2 (Homo sapiens), sequence (P50579 2-478 limits assumed): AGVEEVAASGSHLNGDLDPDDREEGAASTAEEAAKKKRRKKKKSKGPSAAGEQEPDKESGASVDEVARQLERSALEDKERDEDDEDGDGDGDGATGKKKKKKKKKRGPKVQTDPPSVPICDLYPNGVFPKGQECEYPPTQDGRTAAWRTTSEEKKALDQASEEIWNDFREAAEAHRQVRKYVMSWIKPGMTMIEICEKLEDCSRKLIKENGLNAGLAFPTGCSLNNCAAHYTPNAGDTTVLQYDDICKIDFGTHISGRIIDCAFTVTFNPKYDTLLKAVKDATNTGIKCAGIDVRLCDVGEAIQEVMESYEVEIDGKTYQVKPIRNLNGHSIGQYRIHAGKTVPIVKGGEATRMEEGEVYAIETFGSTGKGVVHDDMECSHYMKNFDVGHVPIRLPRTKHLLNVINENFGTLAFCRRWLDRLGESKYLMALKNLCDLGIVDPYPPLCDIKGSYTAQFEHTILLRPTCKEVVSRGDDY

| Activity [1] [%] | inhibition [6] | Stability [7] | Stability [8] | inhibition [9] | Compound | inhibition [2] | inhibition [3] | IC50 [4] [nM] | inhibition [5] |
| --- | --- | --- | --- | --- | --- | --- | --- | --- | --- |
| 58 | – | – | – | – | C=C([C@H](O)CC=C(C)C)[C@H]1[C@H](OC)[C@H](OC(=O)N[C@@H](C(N)=O)C(C)C)CC[C@]1(O)CCl | Active | Active | 3.3 | Active |
| 6 | inactive | Unstable | Stable | Active | CO[C@@H]1[C@H](OC(=O)N[C@@H](C(N)=O)C(C)C)CC[C@](O)(CCl)[C@H]1[C@@]1(C)O[C@@H]1CC=C(C)C | Active | Active | 0.15 | Active |
| 3 | Active | – | – | Active | CO[C@H]1[C@@H]([C@@]2(C)O[C@@H]2CC=C(C)C)[C@]2(CC[C@H]1OC(=O)N[C@@H](C(N)=O)C(C)C)CO2 | Active | Active | 0.18 | Active |
| 107 | – | – | – | – | CO[C@@H]1[C@H](OC(=O)N[C@@H](C(N)=O)C(C)C)CC[C@]2(O)CO[C@](C)([C@H](O)CC=C(C)C)[C@@H]12 | inactive | inactive | > 30000 | inactive |
| 105 | – | – | – | – | CO[C@@H]1[C@H](OC(=O)N[C@@H](C(N)=O)C(C)C)CC[C@@]2(O)CO[C@](C)([C@H](O)CC=C(C)C)[C@@H]12 | inactive | inactive | > 30000 | inactive |
| 27 | – | – | – | – | C=C([C@H](O)CC=C(C)C)[C@H]1[C@H](OC)[C@H](OC(=O)N[C@@H](C(N)=O)C(C)C)CC[C@]12CO2 | Active | Active | 3.1 | Active |
